Experimental data: patent US10111932B2, “Coagonists of glucagon-like peptide 1 receptor and neuropeptide Y2 receptor” (Syracuse University, priority 2015, dated 2018)
Entries after “also recorded” stand apart in the source; their conditions may differ. Ends that are not written are not given here.

Columns and labels:
Format in all cases: cell-based
GLP-1R = target: T1, GLP-1R (Homo sapiens, UniProt P43220); experiment: GLP-1R agonism, AKAR3 FRET assay in HEK-GLP-1R cells; details: for GLP-1R agonism screen: 300 nM, HEK-GLP-1R cells (FIG. 10)
T1 construct: expressed in transfected cells; host or cells: HEK293
Method: (§1) The RLB series peptides were tested for function at receptors corresponding to the glucagon super family of receptors and NPY receptors. These receptors were transfected into either HEK293 cells or CHO cells. HEK 293 cells stably transfected with either GLP-1R or GIPR followed by an infection of adenovirus incorporating AKAR3 to indirectly follow cAMP production. CHO cells were transfected with NPY2R and a promiscuous g protein using FURA2 to follow calcium release.

GIPR = target: T2, GIPR (Homo sapiens, UniProt P48546); experiment: GIPR agonism, AKAR3 FRET in HEK293 cells stably transfected with GIPR; details: tested up to 1 μM
T2 construct: expressed in transfected cells; host or cells: HEK293
T2 sequence (P48546 22-466): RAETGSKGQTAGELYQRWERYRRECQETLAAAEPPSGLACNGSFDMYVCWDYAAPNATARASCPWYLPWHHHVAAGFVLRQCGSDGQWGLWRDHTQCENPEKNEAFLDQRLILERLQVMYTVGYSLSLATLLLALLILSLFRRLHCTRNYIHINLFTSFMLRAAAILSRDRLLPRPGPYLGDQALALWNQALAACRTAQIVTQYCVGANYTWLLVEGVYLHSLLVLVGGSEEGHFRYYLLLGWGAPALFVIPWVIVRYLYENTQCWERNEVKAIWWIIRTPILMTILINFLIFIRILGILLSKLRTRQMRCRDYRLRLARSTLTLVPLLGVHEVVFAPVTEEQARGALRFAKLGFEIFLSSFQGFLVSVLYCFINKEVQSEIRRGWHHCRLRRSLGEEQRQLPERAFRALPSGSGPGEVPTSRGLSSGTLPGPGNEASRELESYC
Method: as §1
Receptors in the glucagon receptor superfamily were tested based on the similarities of native peptide agonists.

NPY2R = target: T3, NPY2R (Homo sapiens, UniProt P49146); experiment: NPY2R agonism, FURA2 calcium release in transfected CHO cells
T3 construct: expressed in transfected cells; host or cells: CHO
T3 sequence (P49146 1-381): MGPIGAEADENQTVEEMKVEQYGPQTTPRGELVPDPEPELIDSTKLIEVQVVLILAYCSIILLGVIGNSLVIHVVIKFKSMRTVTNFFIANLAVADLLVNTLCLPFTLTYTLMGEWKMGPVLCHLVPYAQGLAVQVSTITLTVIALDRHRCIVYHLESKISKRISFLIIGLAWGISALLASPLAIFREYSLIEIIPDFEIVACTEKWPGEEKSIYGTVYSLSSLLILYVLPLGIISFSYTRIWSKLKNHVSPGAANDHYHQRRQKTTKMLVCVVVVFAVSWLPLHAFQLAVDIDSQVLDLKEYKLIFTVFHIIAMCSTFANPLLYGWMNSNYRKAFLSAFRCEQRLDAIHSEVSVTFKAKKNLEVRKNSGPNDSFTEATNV
Method: as §1

T1 sequence (P43220 24-463, species assumed): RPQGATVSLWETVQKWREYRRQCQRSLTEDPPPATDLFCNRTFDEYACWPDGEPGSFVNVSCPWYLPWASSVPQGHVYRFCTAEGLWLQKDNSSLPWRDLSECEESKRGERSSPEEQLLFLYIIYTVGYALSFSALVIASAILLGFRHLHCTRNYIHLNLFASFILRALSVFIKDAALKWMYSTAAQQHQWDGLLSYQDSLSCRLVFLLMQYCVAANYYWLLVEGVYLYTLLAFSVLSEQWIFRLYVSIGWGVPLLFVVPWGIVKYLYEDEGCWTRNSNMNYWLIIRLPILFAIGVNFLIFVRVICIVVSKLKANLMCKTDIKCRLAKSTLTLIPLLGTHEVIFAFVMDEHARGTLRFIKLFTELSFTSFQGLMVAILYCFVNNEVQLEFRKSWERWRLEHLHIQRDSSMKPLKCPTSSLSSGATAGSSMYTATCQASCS

| Molecule | GLP-1R agonism screen (GLP-1R) | EC50 (GLP-1R; dose response) [nM] | GLP-1R agonism screening (GLP-1R; peptides at 100 nM (FIG. 3)) | Potency at the GLP-1R, comparative statement (GLP-1R; relative to the other dual agonists) | GIPR agonism (GIPR) | NPY2R agonism screen (NPY2R; 300 nM (FIG. 12)) | EC50 (NPY2R; dose response) [nM] |
| --- | --- | --- | --- | --- | --- | --- | --- |
| CC[C@H](C)[C@H](NC(=O)[C@H](Cc1ccccc1)NC(=O)[C@H](CC(C)C)NC(=O)[C@H](CCCNC(=N)N)NC(=O)[C@@H](NC(=O)[C@H](C)NC(=O)[C@H](CCC(=O)O)NC(=O)[C@H](CCC(=O)O)NC(=O)[C@H](CCC(=O)O)NC(=O)[C@H](CCSC)NC(=O)[C@H](CCC(N)=O)NC(=O)[C@H](CCCCN)NC(=O)[C@H](CO)NC(=O)[C@H](CC(C)C)NC(=O)[C@H](CC(=O)O)NC(=O)[C@H](CO)NC(=O)[C@@H](NC(=O)[C@H](Cc1ccccc1)NC(=O)[C@@H](NC(=O)CNC(=O)[C@H](CCC(=O)O)NC(=O)CNC(=O)[C@@H](N)Cc1c[nH]cn1)[C@@H](C)O)[C@@H](C)O)C(C)C)C(=O)N[C@@H](CCC(=O)O)C(=O)N[C@@H](Cc1c[nH]c2ccccc12)C(=O)N[C@@H](CC(C)C)C(=O)N[C@@H](CCCNC(=N)N)C(=O)N[C@@H](Cc1c[nH]cn1)C(=O)N[C@@H](Cc1ccc(O)cc1)C(=O)N[C@@H](CC(C)C)C(=O)N[C@@H](CC(N)=O)C(=O)N[C@@H](CC(C)C)C(=O)N[C@H](C(=O)N[C@H](C(=O)N[C@@H](CCCNC(=N)N)C(=O)N[C@@H](CCC(N)=O)C(=O)N[C@@H](CCCNC(=N)N)C(=O)N[C@@H](Cc1ccc(O)cc1)C(N)=O)[C@@H](C)O)C(C)C [Peptide 12] | have agonism | 0.253 ± 0.05 | effective agonists | significant less potent | no agonsim; also recorded: no function | full function | 59 |
| IKPEAPREDASPEEENQAYKEFIAYLNLVTRQRY-NH2 [Peptide 13] | no function |  |  |  |  |  |  |
